# Results: paper PMC5433425 (PeerJ, 2017)
# “And” between values parts separate entries of the source, which are not always exact repeats. Identical values can stand only once. Like-named read-outs stand apart in the source and are kept apart here.
# Tests used:
# E. coli AG100 [1] = assay: Checkerboard synergy assay (MIC of antibiotics/EtBr with efflux inhibitor); type: cell-based, Escherichia coli; conditions: for MIC: Escherichia coli
# Experimental: (§1) The assays were performed in triplicate and the MIC value was given as result of at least two concordant values.
# E. coli AG100tet [2] = assay: EtBr accumulation by real-time fluorometry; conditions: EtBr 2 µg/ml + inhibitor 80 µM
# E. coli AG100 [3] = assay: Membrane permeability assay (Live/Dead BacLight)
# [4] = tested on: E. coli AG100tet (AcrAB overexpressing); assay: MIC, broth microdilution; type: cell-based, Escherichia coli; conditions: Escherichia coli
# [5] = tested on: E. coli AG100A (AcrAB pump-deficient); assay: MIC, broth microdilution; type: cell-based, Escherichia coli; conditions: Escherichia coli
# E. coli AG100tet [6] = assay: microbe, parasite or virus in culture; type: cell-based, Escherichia coli; conditions: Escherichia coli, AG100TET
# Experimental: as §1
# E. coli AG100A = assay: microbe, parasite or virus in culture; type: cell-based, Escherichia coli; conditions: for MIC: Escherichia coli, AG100A
# Experimental: The minimum inhibitory concentrations (MICs) were determined using the broth microdilution method according to the CLSI guidelines ([Clinical and Laboratory Standards Institute, 2014]). […] Two-fold serial dilutions of the compounds were made to achieve the following concentrations: 320 µM–40 µM. The MICs were determined as the lowest concentration at which no visible growth was observed after 18 h of incubation at 37 °C. The assays were performed in triplicate and the MIC value was given as result of at least two concordant values.
# E. coli AG100 [7] = assay: EtBr efflux by real-time fluorometry; conditions: AG100, AG100A and AG100tet (Fig. 2); 80 μM (20 μM for AG100A); glucose, 37 °C
# Experimental: Control tubes with only cells and cells with and without 0.4% glucose were included. The fluorescence was measured in a Rotor-Gene 3000 and the data was acquired every 30 s for 30 min at 37 °C. The efflux activity was quantified by comparing the fluorescence data obtained under conditions that promote efflux (presence of glucose and absence of efflux inhibitor) with the data from the control in which the bacteria are under conditions of no efflux (presence of an inhibitor and no energy source).
# E. coli AG100 [8] = assay: Membrane potential assay (BacLight, DiOC2(3)); conditions: 80 µM
smiles,measurement,setting,value
"CN(C)CCCN1c2ccccc2Sc2ccc(Cl)cc21 [CPZ, chlorpromazine]",MIC of OFX in presence of the efflux inhibitor,"E. coli AG100 [1]; AG100, inhibitor 80 μM",0.125 µg/mL
same,MIC of OXA in presence of the efflux inhibitor,"E. coli AG100 [1]; AG100, inhibitor 80 μM",512 µg/mL
same,MIC,"E. coli AG100 [1]; AG100, AG100, inhibitor 160 μM, read-out: MIC of OXA in presence of the efflux inhibitor",≤ 1 µg/mL
same,MIC,"E. coli AG100 [1]; AG100, read-out: MIC of EtBr in presence of the efflux inhibitor",25 µg/mL
same,MIC,"E. coli AG100 [1]; AG100, read-out: MIC of EtBr in presence of the efflux inhibitor, AG100, inhibitor 40 μM",100 µg/mL
same,MIC,"E. coli AG100 [1]; AG100, read-out: MIC of EtBr in presence of the efflux inhibitor, AG100, inhibitor 160 μM",≤ 0.39 µg/mL
same,MIC,"E. coli AG100 [1]; AG100, read-out: MIC of OFX in presence of the efflux inhibitor",0.125 µg/mL
same,MIC,"E. coli AG100 [1]; AG100, read-out: MIC of OFX in presence of the efflux inhibitor, AG100, inhibitor 160 μM",0.003 µg/mL
same,MIC,"E. coli AG100 [1]; AG100, read-out: MIC of OXA in presence of the efflux inhibitor",512 µg/mL
same,MIC,"E. coli AG100 [1]; AG100, read-out: MIC of TET in presence of the efflux inhibitor, AG100, inhibitor 40 μM",1 µg/mL
same,MIC,"E. coli AG100 [1]; AG100, read-out: MIC of TET in presence of the efflux inhibitor, AG100, inhibitor 80 μM",0.5 µg/mL
same,MIC,"E. coli AG100 [1]; AG100, read-out: MIC of TET in presence of the efflux inhibitor, AG100, inhibitor 160 μM",≤ 0.03 µg/mL
same,EtBr fluorescence,E. coli AG100tet [2]; cycle 1,9.834
same,EtBr fluorescence,E. coli AG100tet [2]; cycle 2,10.8502
same,EtBr fluorescence,E. coli AG100tet [2]; cycle 3,12.3051
same,EtBr fluorescence,E. coli AG100tet [2]; cycle 4,13.857
same,EtBr fluorescence,E. coli AG100tet [2]; cycle 5,15.5494
same,EtBr fluorescence,E. coli AG100tet [2]; cycle 6,17.3058
same,EtBr fluorescence,E. coli AG100tet [2]; cycle 7,19.3992
same,EtBr fluorescence,E. coli AG100tet [2]; cycle 8,20.8092
same,EtBr fluorescence,E. coli AG100tet [2]; cycle 9,23.1444
same,EtBr fluorescence,E. coli AG100tet [2]; cycle 10,25.4323
same,EtBr fluorescence,E. coli AG100tet [2]; cycle 11,27.4946
same,EtBr fluorescence,E. coli AG100tet [2]; cycle 12,29.7214
same,EtBr fluorescence,E. coli AG100tet [2]; cycle 13,31.9876
same,EtBr fluorescence,E. coli AG100tet [2]; cycle 14,34.2074
same,EtBr fluorescence,E. coli AG100tet [2]; cycle 15,36.9702
same,EtBr fluorescence,E. coli AG100tet [2]; cycle 16,39.6127
same,EtBr fluorescence,E. coli AG100tet [2]; cycle 17,42.5123
same,EtBr fluorescence,E. coli AG100tet [2]; cycle 18,45.4508
same,EtBr fluorescence,E. coli AG100tet [2]; cycle 19,48.5847
same,EtBr fluorescence,E. coli AG100tet [2]; cycle 20,50.7436
same,EtBr fluorescence,E. coli AG100tet [2]; cycle 21,54.1808
same,EtBr fluorescence,E. coli AG100tet [2]; cycle 22,57.0724
same,EtBr fluorescence,E. coli AG100tet [2]; cycle 23,59.5808
same,EtBr fluorescence,E. coli AG100tet [2]; cycle 24,63.2028
same,EtBr fluorescence,E. coli AG100tet [2]; cycle 25,66.0088
same,EtBr fluorescence,E. coli AG100tet [2]; cycle 26,69.6637
same,EtBr fluorescence,E. coli AG100tet [2]; cycle 27,72.1
same,EtBr fluorescence,E. coli AG100tet [2]; cycle 28,75.2829
same,EtBr fluorescence,E. coli AG100tet [2]; cycle 29,78.0686
same,EtBr fluorescence,E. coli AG100tet [2]; cycle 30,80.8335
same,"BacLight Live/Dead fluorescence 485/20,528/20","E. coli AG100 [3]; 80 uM, raw well reading",104 and 88
same,"BacLight Live/Dead fluorescence 485/20,590/35","E. coli AG100 [3]; 80 uM, raw well reading",30 and 24
same,membrane permeability increase / membrane permeation,"E. coli AG100 [3]; AG100, 80 µM",18%
same,MIC,[4],280 µg/mL and 788 µM
same,MIC,[5],60 µg/mL and 169 µM
same,MIC,"E. coli AG100tet [6]; read-out: MIC of EtBr in presence of the efflux inhibitor, AG100tet, inhibitor 40 μM",256 µg/mL
same,MIC,"E. coli AG100tet [6]; read-out: MIC of EtBr in presence of the efflux inhibitor, AG100tet, inhibitor 80 μM",128 µg/mL
same,MIC,"E. coli AG100tet [6]; read-out: MIC of EtBr in presence of the efflux inhibitor, AG100tet, inhibitor 160 μM",128 µg/mL
same,MIC,"E. coli AG100tet [6]; read-out: MIC of OFX in presence of the efflux inhibitor, AG100tet, inhibitor 40 μM",0.5 µg/mL
same,MIC,"E. coli AG100tet [6]; read-out: MIC of OFX in presence of the efflux inhibitor, AG100tet, inhibitor 80 μM",0.5 µg/mL
same,MIC,"E. coli AG100tet [6]; read-out: MIC of OFX in presence of the efflux inhibitor, AG100tet, inhibitor 160 μM",0.25 µg/mL
same,MIC,"E. coli AG100tet [6]; read-out: MIC of OXA in presence of the efflux inhibitor, AG100tet, inhibitor 40 μM",> 2050 µg/mL
same,MIC,"E. coli AG100tet [6]; read-out: MIC of OXA in presence of the efflux inhibitor, AG100tet, inhibitor 80 μM",2050 µg/mL
same,MIC,"E. coli AG100tet [6]; read-out: MIC of OXA in presence of the efflux inhibitor, AG100tet, inhibitor 160 μM",1020 µg/mL
same,MIC,"E. coli AG100tet [6]; read-out: MIC of TET in presence of the efflux inhibitor, AG100tet, inhibitor 40 μM",32 µg/mL
same,MIC,"E. coli AG100tet [6]; read-out: MIC of TET in presence of the efflux inhibitor, AG100tet, inhibitor 80 μM",32 µg/mL
same,MIC,"E. coli AG100tet [6]; read-out: MIC of TET in presence of the efflux inhibitor, AG100tet, inhibitor 160 μM",16 µg/mL
same,reduction in TET MIC,E. coli AG100A; AG100A (pump-deficient strain),4 fold
same,MIC,E. coli AG100A; read-out: MIC of EtBr in presence of the efflux inhibitor,0.39 µg/mL
same,MIC,E. coli AG100A; read-out: MIC of OFX in presence of the efflux inhibitor,0.015 µg/mL
same,MIC,E. coli AG100A; read-out: MIC of OXA in presence of the efflux inhibitor,2 µg/mL
same,MIC,E. coli AG100A; read-out: MIC of TET in presence of the efflux inhibitor,0.125 µg/mL
same,inhibition of EtBr efflux,E. coli AG100 [7],inhibited
same,membrane depolarization,E. coli AG100 [8],similarly to that caused by PQQ4R
